The values below are quoted from earlier work in patent publication US20150336981A1, “MODIFIED POLYPHENOLS AND MODIFIED POLYPHENOL COMPOSITIONS” (CELLAROUGE PTY LTD, priority 2012, published 2015).

The subject of this data set is high-carbohydrate, high fat diet-fed rats. To be noted: HEA: high-carbohydrate, high fat diet + ellagic acid 0.8 g/kg food.

Take `O=c1oc2c(O)c(O)cc3c(=O)oc4c(O)c(O)cc1c4c23` [ellagic acid]: the AUC is 696 ± 11 mmol·min/L, the Abdominal circumference is 21.3 ± 0.3 cm, the Abdominal fat pads is given as 520 ± 29 mg/mm tibial length and the BMI is given as 0.72 ± 0.02 g/cm^2. Further, the Basal blood glucose is 3.9 ± 0.2 mmol/L, the Feed efficiency is recorded as 0.31 ± 0.02 g/kJ, the Final body weight is recorded as 473 ± 2 g and the Food intake is listed as 21.0 ± 0.4 g. In addition, the “Plasma C-reactive protein” value was 2.40 ± 0.07 µmol/L, the “Plasma non-esterified fatty acids” value is 1.7 ± 0.2 mmol/L, the Plasma total cholesterol is recorded as 1.5 ± 0.1 mmol/L and the Plasma triglycerides was 0.5 ± 0.1 mmol/L. Further, the Plasma urea is reported as 6.2 ± 0.4 mmol/L, the Plasma uric acid was 44.3 ± 3.8 µmol/L and the Water intake is recorded as 19.0 ± 0.4 mL.
